{"source": "patent US6994983B2", "about": "“Kits for determination of thromboxane B2 metabolite and optimizing aspirin dosage” (Esoterix, Inc. Coagulation, priority 1999, dated 2006)", "key": {"[1]": {"test_system": "11-dehydro thromboxane B2", "test": "Urine 11-dehydro thromboxane B2 (PURR) after one-week interventions with purple grape juice, vitamin E and aspirin", "assay_type": "in vivo, human", "settings": "for Mean post-intervention PURR: one week each: purple grape juice controlled daily volumes, mean baseline 1105; for Mean post-intervention PURR / % Change of PURR vs mean baseline: vitamin E 400 international units per day, aspirin 650 mg per day; for % Change of PURR vs mean baseline: one week each: purple grape juice; for effect upon urinary excretion of 11-dehydro thromboxane B2: one-week interventions, in words", "method": "11-dehydro thromboxane B2, a stable metabolite of platelet-specific cyclooxygenase activity, in urine specimens from 29 individuals was measured. Participants were instructed to drink controlled daily volumes of purple grape juice, 400 international units per day of vitamin E, and 650 mg per day of aspirin. Each intervention was given in one-week intervals separated by a one-week washout period. The metabolite was measured in baseline, post-intervention, and post-washout urine specimens and the results were expressed as platelet urinary response ratios (PURR) based upon pg 11-dehydrothromboxane B2/mg creatinine."}, "[2]": {"settings": "in vivo; cited from earlier work"}, "[3]": {"settings": "single dose of 325 mg; cited from earlier work"}, "[4]": {"test_system": "platelet suppression response", "settings": "patients on aspirin therapy; cited from earlier work"}, "[5]": {"settings": "cited from earlier work"}, "[6]": {"settings": "smokers after partial ileal bypass surgery reporting even infrequent aspirin use; 45.2% with no aspirin use; cited from earlier work"}, "[7]": {"test_system": "platelet aggregation", "settings": "intermittent claudication, 100 mg aspirin/day, at any given time; cited from earlier work"}, "[8]": {"settings": "patients with prior acute myocardial infarction or stroke; cited from earlier work"}, "[9]": {"test_system": "11-dehydro TXB2", "test": "Platelet urinary response ratio (PURR), aspirin therapy vs non-users, reformulated buffer", "assay_type": "in vivo, human", "source_text": "The PURRs generated in the 11-dehydro thromboxane B2 assay in the present example were higher than those generated in subsequent studies. The average reduction after the investigators initial assay was 60%. This change was a result of a reformulation of the reagent buffer. Reformation of the buffer was made by the supplier, Cayman Chemical Corporation. The initial buffer was thought to be a phosphate saline buffer. The reformatted buffer is an alpha diethanolamine buffer. […] The buffer change was made to convert any lactone form present in the same urine to the free acid form of the thromboxane. The current procedure requires a two-hour pre-incubation of the urine sample in the diethanolamine buffer in order to allow for the conversion of the forms before pipetting to the plate. The new decision point for the assay is 400 PURR units, down from the original 1000.\nTo normalize for urinary output, results are expressed as platelet urinary response ratio (PURR) based upon pg 11-dehydro TXB2/g creatinine. Results of all populations were compared using the student t-test."}, "[10]": {"settings": "in vivo; cited from earlier work", "remark": "listed apart in the source"}, "[11]": {"test_system": "11-dehydro TXB2", "test": "Crossover study: urine 11-dehydro TXB2 before and 24 hours after one 81 or 325 mg aspirin tablet in 24 healthy individuals", "assay_type": "in vivo, human", "settings": "for mean reduction of 11-dehydro TXB2 / PURR: healthy non-aspirin users", "method": "(§1) In a crossover study, 24 healthy individuals who had avoided aspirin for a minimum of 10 days collected random baseline urine specimens. They then took one 81 or 325 mg tablet at 8:00 a.m. and collected a second urine specimen 24 hours after the aspirin was taken. Following a two-week washout period dosages were reversed and another baseline and 24-hours post-aspirin specimen was collected.\nas §1, with “study, twenty-four” for “study, 24”, “of ten” for “of 10”, “8:00 AM” for “8:00 a.m.”, “a 2-week” for “a two-week”"}, "[12]": {"test_system": "platelet aggregation", "settings": "cited from earlier work"}, "[13]": {"test_system": "platelet reactivity", "settings": "cited from earlier work"}, "[14]": {"test_system": "serum TXB2", "settings": "3 mg of aspirin per day, healthy volunteers; cited from earlier work"}, "[15]": {"test_system": "11-dehydro TXB2", "test": "11-dehydro TXB2 in random urine of aspirin users and non-users (acetylcholinesterase-linked immunoassay)", "assay_type": "in vivo, human", "settings": "45 people taking at least 81 mg/day; non-aspirin users 2080", "method": "Random urine specimens were collected from 65 individuals who had avoided aspirin for at least two weeks and from 45 individuals who were taking 81 or 325 mg/day by prescription. Each specimen was assayed for 11-dehydro-TXB2. Specimens were assayed at two dilutions using acetylcholinesterase-linked immunoassay. The results were tested for parallelism and averaged. Urine creatinine was assayed using the Jaffe picrate reaction. To normalize for urinary output, results were expressed in pg 11-dehydro TXB2/mg creatinine. Results of all populations were compared using the student t-test. Within-day variation is 30% and day-to-day variation 20%.\n11-dehydrothromboxane B2 (11-de-H-TXB2), a stable metabolite of platelet activation was measured in random urine specimens from 65 people who were not taking aspirin and 45 who were taking at least 81 mg/day. The means for non-aspirin users was 2080 pg 11-de-H-TXB2/mg creatinine, and for aspirin users was 523, p.<0.0000.1. Receiver-operating characteristic analysis yields an optimum decision point of 1000 pg 11-de-H-TXB2 in random urine may be used to document aspirin's platelet-suppressive effects and to identify individuals who may not achieve antithrombotic benefits."}}, "note": "Several values for one entry are separate records, joined by “and”; a condition that tells them apart may be missing. Equal entries are not always repeated.", "data": [{"compound": "Vitamin E", "values": [{"measurement": "Mean post-intervention PURR", "setting": "[1]", "result": 1293.1, "unit": "PURR"}, {"measurement": "% Change of PURR vs mean baseline", "setting": "[1]", "result": "+14.3%"}, {"measurement": "effect upon urinary excretion of 11-dehydro thromboxane B2", "setting": "[1]", "result": "no measurable effect"}]}, {"compound": "CCCCCC(O)C=CC1OC(=O)CC(O)C1CC=CCCCC(=O)O", "note": "(stereo not shown) [11-dehydro TXB2, 11-dehydro thromboxane B2]", "values": [{"measurement": "plasma half-life", "setting": "[2]", "result": 45, "unit": "min"}]}, {"compound": "CC(=O)Oc1ccccc1C(=O)O", "note": "[Aspirin, acetyl salicylic acid]", "values": [{"measurement": "duration of effect on platelet laboratory assays", "setting": "[3]", "result": "six to ten"}, {"measurement": "Mean post-intervention PURR", "setting": "[1]", "result": 379.7, "unit": "PURR"}, {"measurement": "% Change of PURR vs mean baseline", "setting": "[1]", "result": "−65.6", "unit": "%"}, {"measurement": "effect upon urinary excretion of 11-dehydro thromboxane B2", "setting": "[1]", "result": "large and statistically significant effect"}, {"measurement": "individuals with aspirin resistance / less than adequate platelet suppression response", "setting": "[4]", "result": "up to 20%"}, {"measurement": "reduction of the morning peak of infarction", "setting": "[5]; between 4 and 10 a.m., 325 mg every other day", "result": 59.3, "unit": "%"}, {"measurement": "mean reduction in the incidence of first myocardial infarction", "setting": "[5]; healthy men, 325 mg every other day, vs placebo", "result": 44.8, "unit": "%"}, {"measurement": "thrombotic events prevented, average", "setting": "[5]; healthy men", "result": "four"}, {"measurement": "overall mortality rate", "setting": "[6]", "result": 10.4, "unit": "%"}, {"measurement": "males with complete inhibition of aggregation", "setting": "[7]", "result": 40, "unit": "%"}, {"measurement": "new thrombotic events prevented", "setting": "[8]", "result": "up to 40 per thousand treated"}, {"measurement": "Mean PURR, aspirin therapy", "setting": "[9]; 81 to 325 mg/day, N 98, aspirin non-users 1147", "result": 297, "unit": "PURR units"}, {"measurement": "individuals identified as potential non-responders", "setting": "[9]; aspirin users, decision points 400 / 500 pg 11-dehydro-TXB2/mg creatinine", "result": 13, "unit": "%"}, {"measurement": "relative risk for hemorrhagic stroke", "setting": "[10]", "result": 4, "unit": "×"}, {"measurement": "relative risk of ischemic stroke", "setting": "[10]", "result": 1.6, "unit": "×"}, {"measurement": "% Inhibition (81)", "setting": "[11]; 81 mg aspirin, urine 11-dehydro TXB2 24 hours post-dose vs baseline, individual subjects 3, 8, 12, 14, 17, 18, 24 with weak response", "result": "60% and 78% and 46% and 48% and 70% and 17% and 10%"}, {"measurement": "mean reduction of 11-dehydro TXB2 / PURR", "setting": "[11]; 81 mg/day", "result": 68, "unit": "%"}, {"measurement": "% Inhibition (325)", "setting": "[11]; 325 mg aspirin, urine 11-dehydro TXB2 24 hours post-dose vs baseline, individual subjects 3, 8, 12, 14, 17, 18, 24 with weak response", "result": "44% and 40% and 82% and 83% (2×) and 46% and 38%"}, {"measurement": "mean reduction of 11-dehydro TXB2 / PURR", "setting": "[11]; 325 mg/day", "result": 76, "unit": "%"}, {"measurement": "individuals with a less than 50% response to either 81 mg or 325 mg of aspirin", "setting": "[11]; crossover study, seven individuals", "result": 30, "unit": "%"}, {"measurement": "patients with only partial inhibition of platelet aggregation", "setting": "[12]; atrial fibrillation, 325 mg enteric coated aspirin per day", "result": "seven of 17"}, {"measurement": "patients with restoration of platelet aggregation (aspirin resistance)", "setting": "[12]; previous ischemic stroke, escalation to 1300 mg/day", "result": 8.2, "unit": "%"}, {"measurement": "subjects with immediate suppression of platelet reactivity", "setting": "[13]; 500 mg three times per day, upon initial administration", "result": 90, "unit": "%"}, {"measurement": "secondary aspirin non-responders with myocardial infarct, repeat stroke, or vascular death", "setting": "[13]; 24-month period following discharge", "result": 40, "unit": "%"}, {"measurement": "remaining subjects with major endpoints", "setting": "[13]; 114 remaining subjects, 24-month period", "result": 4.4, "unit": "%"}, {"measurement": "reduction of serum TXB2 levels compared to placebo", "setting": "[14]", "result": 39, "unit": "%"}, {"measurement": "mean 11-de-H-TXB2 in random urine of aspirin users", "setting": "[15]", "result": "523 pg 11-de-H-TXB2/mg creatinine"}]}]}
